Results taken from article PMC8615109, “Assessment of Micafungin Dosage Regimens in Patients with Cancer Using Pharmacokinetic/Pharmacodynamic Modeling and Monte Carlo Simulation” (Antibiotics, 2021).
Numbered stars: 1 amine (or outer) side, 2 acyl side, 3 side chain; on linkers, the order of the positions; unused ones are H or OH. Bridge positions count the residues as written; N and C are the ends. Square brackets hold non-standard residues; d marks the D form. Peptide text beside a SMILES is read from it. * marks the point of attachment. hTyr(3S-OH,4S-OH,3'-OSO3H) = N[C@H](C(=O)O)[C@H](O)[C@@H](O)c1ccc(O)c(OS(=O)(=O)O)c1; Orn(4R-OH,5R-OH) = O=C([C@H](C[C@@H](O)[C@@H](O)N[*:3])N[*:1])[*:2]; Pro(3S-OH,4S-Me) = C[C@H]1CN[C@H](C(=O)O)[C@H]1O; X1 = CCCCCOc1ccc(-c2cc(-c3ccc(C(=O)*)cc3)no2)cc1; Gln(3R-OH) = NC(=O)C[C@@H](O)[C@H](N)C(=O)O; Hyp = O=C(O)[C@@H]1C[C@@H](O)CN1

Columns and labels:
clinical = type: in vivo, human (adult patients); conditions: population estimate; for clearance: both sexes, human, in vivo, iv, two-compartment population model (Monolix 4.4), plasma HPLC-UV
Protocol: This was a prospective pharmacokinetic study to compare adult patients with and without cancer. The study was conducted at King Saud University Medical City, a tertiary hospital. The study included male and female patients aged ≥ 18 years, who were admitted to the hospital and received a minimum of 2 micafungin doses based on empirical evidence or culture results. Patients who were pregnant and those with a micafungin allergy were excluded. The study protocol was approved by the Institutional Review Board of King Saud University Medical City (E-18-3373), and written informed consent was obtained from all patients before their inclusion in the study.
All patients were treated with a 100–150 mg daily dose of micafungin for empirical use or confirmed fungal infection. Micafungin was diluted in 100 mL isotonic saline solution and infused over 60 min. Blood samples were drawn at 1, 2, 4, 6, 8, 12, and 24 h from the initiation of the micafungin dose. All blood samples were centrifuged, and plasma samples were stored at −80 °C until analysis.
Plasma micafungin concentrations were determined using a high-performance liquid chromatography (HPLC) method with a UV detection system, with slight modification. Plasma samples were separated from whole blood, acidified with phosphoric acid, precipitated with acetonitrile, and centrifuged prior to dilution with buffer and injection into an HPLC system. Anidulafungin served as I.S. for micafungin. The method was fully validated and achieved using an isocratic Prominence Shimadzu HPLC system (Shimadzu, Columbia, MD, USA), which comprised an autosampler (SIL-20AHT), a UV detector (Shimadzu UV SPD-20A), and a pump (LC-20AB) connected to a degasser (Dgu-20A3). The separation of micafungin was performed on a Phenomenex Luna C18 column (250 × 4.6 mm i.d., 5 µm; Phenomenex, CA). The mobile phase comprised 0.1% (w/w) ammonium acetate in water, with pH adjusted to 7.0 with 25% NH3 solution and acetonitrile (70%:30%); the flow rate was 1 mL/min, and micafungin was detected at 273 nm. Data acquisition was achieved using LC Solution chromatographic software version 1.22 SP1 (Shimadzu, Columbia, MD, USA).
Data from patients with and without cancer were comodeled using Monolix 4.4 software (Supplementary File S1). Monolix estimates pharmacokinetic parameters using the stochastic approximation expectation maximization algorithm. In the first step, we developed the base structural model for micafungin by fitting various compartmental models to plasma drug concentrations. The following criteria were followed to select between models: (a) a decrease in the minimum of the objective function value (log-likelihood value); (b) precision of the parameter estimation expressed as RSE (%) and calculated as the ratio between the standard error and final parameter estimate; (c) physiologic plausibility; and (d) GOF plots including observed and predicted concentrations, residuals plot, and visual predictive check.
A covariate model was developed in a stepwise fashion, with forward inclusion based on model selection criteria. First, we plotted the empirical Bayesian estimates vs. covariates to screen for potentially significant correlations. Next, we performed a stepwise regression analysis to test the significant covariates identified in step 1, using the −2 log-likelihood ratio test. Age, body weight, height, BMI, sex, serum creatinine, creatinine clearance, sequential organ failure assessment score, and levels of AST, alanine transaminase, total bilirubin, and albumin were tested as covariates.
GOF was assessed using the log-likelihood criterion during model building. Plots of model-based individual and population predictions vs. the observed concentrations were performed for model assessment. A predicted–corrected visual predictive check using 1000 simulations was constructed to study the performance of the final model. […]

[1] = cited from earlier work
Description: Micafungin is metabolized in the liver by catechol O-methyltransferase, arylsulfatase, and hydroxylation. Only 1% of the unchanged drug is excreted through the kidneys. […] The elimination pharmacokinetics of micafungin in patients with advanced hepatic insufficiency are not fully understood. […] We described the plasma concentration-time curve of micafungin using a two-compartment model, similar to that described in previous studies. […] Overall, there were no differences in the ...

[2] = patients with cancer (n = 10), 100 mg/day i.v.
[3] = patients without cancer (n = 9), 100-150 mg/day i.v.

SMILES: CCCCCOc1ccc(-c2cc(-c3ccc(C(=O)N[C@H]4C[C@@H](O)[C@@H](O)NC(=O)[C@@H]5[C@@H](O)[C@@H](C)CN5C(=O)[C@H]([C@H](O)CC(N)=O)NC(=O)[C@H]([C@H](O)[C@@H](O)c5ccc(O)c(OS(=O)(=O)O)c5)NC(=O)[C@@H]5C[C@@H](O)CN5C(=O)[C@H]([C@@H](C)O)NC4=O)cc3)no2)cc1 [micafungin] (X1-[Orn(4R-OH,5R-OH)]T[Hyp][hTyr(3S-OH,4S-OH,3'-OSO3H)][Gln(3R-OH)][Pro(3S-OH,4S-Me)]; lactam 1-C)
- clearance (clinical; patients with cancer (n = 10), 100 mg/day i.v. infusion over 60 min): 20 mL/min
- clearance (clinical; patients without cancer (n = 9), 100-150 mg/day i.v. infusion over 60 min): 10 mL/min
- Q (intercompartmental clearance) (clinical; [2]): 0.144 L/h
- V1 (volume of the central compartment) (clinical; [2]): 10.7 L
- V2 (volume of the peripheral compartment) (clinical; [2]): 3.5 L
- Q (intercompartmental clearance) (clinical; [3]): 0.188 L/h
- V1 (volume of the central compartment) (clinical; [3]): 12 L
- V2 (volume of the peripheral compartment) (clinical; [3]): 2.77 L
- terminal half-life ([1]; adults): approximately 15 h
- unchanged drug excreted through the kidneys [1]: 1%
